Reference: patent US7893284B2 (Sterix Limited, priority 2004, dated 2011)
Where two headings read alike, the source gives them in different places.

Tests used:
MCF-7 cells = test: Cell proliferation, microtiter plate assay (Cell Titer 96), MCF-7; format: cell-based
Description: The effect of drugs on the proliferation of cells was measured using a microtiter plate assay (Cell Titer 96 proliferation assay, Promega, Hampshire, UK).

Tubulin = test: Inhibition of taxol-induced microtubule polymerization (turbidity at 350 nm); format: biochemical; conditions: 20 μM, tubulin 1 mg/ml, FIG. 3
Description: The ability of drugs to inhibit taxol-induced polymerisation of tubulin was measured by turbidity at 350 nm. Tubulin (Cryoskeleton Inc., Denver, Colo.), at a final concentration of 1 mg/ml was incubated at 32° C. in G-PEM buffer [80 mM piperazine-N,N′-bis (2-ethane sulfonic acid) sequisodium salt, 1 mM MgCl2, 1 mM EGTA and 1 mM GTP (pH 6.8)] in the presence of taxol with or without estrone derivatives [20 μM].
STX641 is thought to act as an anti-microtubule agent, i.e. to disrupt microtubule function. To show this, tubulin was incubated in the presence of taxol (a compound known to promote tubulin polymerisation). Taxol induced efficient in vitro microtubule assembly as reflected in the increase in turbidity as measured at 350 nm.

[1] = tested on: MCF-7 Breast Cancer Cells; test: Flow cytometric cell cycle analysis, MCF-7; format: cell-based; conditions: 500 nM
Description: Flow cytometric cell cycle analysis was performed on 40% confluent populations of MCF-7s with 500 nM of compound.

[2] = tested on: human umbilical vein endothelial cells (HUVECs); test: Tubule formation, Angiogenesis kit, co-culture of HUVECs and dermal fibroblasts; format: cell-based; conditions: 0.05 μM and 0.1 μM, FIG. 7
Description: The effects of drugs on tubule formation (measured as a marker of their anti-angiogenic potential) was assessed using an Angiogenesis kit (TCS-Cellworks Ltd (Bucks, UK). For this, human umbilical vein endothelial cells (HUVECs) were cultured in a 24-well plate within a matrix of human diploid fibroblasts of dermal origin. The co-cultured cells were incubated throughout the experiment at 37° C. under 5% CO2 in a humidified incubator. On day 1, the culture medium was removed and replaced with medium containing the drugs under investigation. On days 4, 7 and 9, the medium was replaced with fresh medium containing the drugs under investigation. On day 11, the cells were washed with PBS and 70% ethanol (1 ml) added to each well for 30 min to fix the cells. After fixation, the cells were washed with blocking buffer (1 ml PBS+1% bovine serum albumin, Sigma, UK) and stained with either von Willebrand's factor or CD31. The extent of tubule formation was quantified by manual scoring or by computer analysis. Images were captured using a Kodak DC120 digital camera. In addition, details of changes in tubule formation induced by drugs were also recorded by high definition scanning of plates with some of the scans being presented as Photoshop processed images.
In this assay, the ability of STX641 (and related compounds) to act as an inhibitor of angiogenesis was examined using a co-culture of HUVECs and dermal fibroblasts. In this system, the endothelial cells initially form small islands within the fibroblast matrix. They subsequently proliferate and enter a migratory phase during which they move through the matrix to form thread-like tubule structures. These coalesce to form a network of anastomosing tubules. In FIG. 5, for untreated (control) co-cultures of HUVECs and dermal fibroblasts, the thread-like nature of the extensive tubule network is clearly visible. […] In FIG. 6, plates have been recorded by high definition scanning and also processed to give pixalated images.

[3] = target: T1, Placental Microsomal Steroid Sulphatase (Homo sapiens, UniProt P08842); test: Inhibition of steroid sulphatase activity in placental microsomes (Protocol 2); format: biochemical
T1 construct: Sulphatase-positive human placenta from normal term pregnancies are thoroughly minced with scissors; from tissue; host or cells: human term placenta (2000 g supernatant of homogenate)
T1 sequence (P08842 22-583): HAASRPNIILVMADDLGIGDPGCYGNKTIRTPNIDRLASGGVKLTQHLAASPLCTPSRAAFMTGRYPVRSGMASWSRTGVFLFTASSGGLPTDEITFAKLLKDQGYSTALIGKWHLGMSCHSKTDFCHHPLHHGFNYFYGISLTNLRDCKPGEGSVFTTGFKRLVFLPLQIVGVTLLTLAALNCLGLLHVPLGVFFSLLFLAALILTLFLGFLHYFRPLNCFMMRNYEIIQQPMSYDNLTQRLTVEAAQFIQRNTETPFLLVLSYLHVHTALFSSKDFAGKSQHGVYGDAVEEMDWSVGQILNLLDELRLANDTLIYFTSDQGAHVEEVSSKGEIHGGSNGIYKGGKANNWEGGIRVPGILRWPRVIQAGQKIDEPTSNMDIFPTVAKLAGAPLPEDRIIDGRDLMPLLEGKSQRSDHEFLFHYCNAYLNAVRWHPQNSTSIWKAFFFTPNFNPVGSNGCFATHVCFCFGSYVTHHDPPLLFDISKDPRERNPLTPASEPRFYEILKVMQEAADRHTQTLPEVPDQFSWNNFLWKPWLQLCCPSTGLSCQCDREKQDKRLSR
Description: Assay for Determining STS Activity Using Placental Microsomes (Protocol 2)
Inhibition of Steroid Sulphatase Activity in Placental Microsomes
Sulphatase-positive human placenta from normal term pregnancies are thoroughly minced with scissors and washed once with cold phosphate buffer (pH 7.4, 50 mM) then re-suspended in cold phosphate buffer (5 ml/g tissue). Homogenisation is accomplished with an Ultra-Turrax homogeniser, using three 10 second bursts separated by 2 minute cooling periods in ice. Nuclei and cell debris are removed by centrifuging (4° C.) at 2000 g for 30 minutes and portions (2 ml) of the supernatant are stored at […] The protein concentration of the supernatants is determined by the method of Bradford (Anal. Biochem., 72, 248-254 (1976)).
. The mixture is shaken thoroughly for 30 seconds with toluene (5 ml). Experiments have shown that >90% [14C]oestrone and <0.1% [3H]oestrone-3-sulphate is removed from the aqueous phase by this treatment. A portion (2 ml) of the organic phase was removed, evaporated and the 3H and 14C content of the residue determined by scintillation spectrometry. The mass of oestrone-3-sulphate hydrolysed is calculated from the 3H counts obtained (corrected for the volumes of the medium and organic phase used, and for recovery of [14C]oestrone added) and the specific activity of the substrate.

[4] = Homo sapiens, MCF7, read-out: IC50 in μM for the growth inhibition of MCF-7 cells
[5] = read-out: IC50 in μM for the growth inhibition of MCF-7 cells

| SMILES | IC50 (MCF-7 cells; [4]) | further results |
| --- | --- | --- |
| CCc1cc2c(cc1OS(N)(=O)=O)CCC1C2CC[C@@]2(C)C1CC[C@@H]2CCOS(N)(=O)=O (some centres unmarked) [Compound 20, Sulfamic acid 2-ethyl-13-methyl-17-(2-sulfamoyloxy-ethyl)-7,8,9,11,12,13,14,15,16,17-decahydro-6H-cyclopenta[a]phenanthren-3-yl ester] | 5.64 µM |  |
| COc1cc2c(cc1O)CCC1C2CC[C@@]2(C)C1CC[C@@H]2CC#N (stereo in doubt) [Compound 32, (3-Hydroxy-2-methoxy-13-methyl-7,8,9,11,12,13,14,15,16,17-decahydro-6H-cyclopenta[a]phenanthren-17-yl)-acetonitrile] | 0.3 µM | inhibition of taxol-induced polymerisation of tubulin (Tubulin): effectively blocked tubulin assembly; G2/M arrest (cells in G2/M) ([1]; 8 h, control 16%): 27%; cells G2/M arrested ([1]; 24 h, control 28%): 18% |
| CCc1cc2c(cc1OS(N)(=O)=O)CCC1C2CC[C@@]2(C)C1CC[C@@H]2CC#N (some centres unmarked) [Compound 28, Sulfamic acid 17-cyanomethyl-2-ethyl-13-methyl-7,8,9,11,12,13,14,15,16,17-decahydro-6H-cyclopenta[a]phenanthren-3-yl ester] |  | inhibition of taxol-induced polymerisation of tubulin (Tubulin): effectively blocked tubulin assembly; inhibition of tubule formation quantified by computer analysis [2]: completely inhibited tubule formation |
| COc1cc2c(cc1O)CCC1C2CCC2(C)C(=CC#N)CCC12 (centres unmarked) [Compound 30, Z- and E-(3-Hydroxy-2-methoxy-13-methyl-6,7,8,9,11,12,13,14,15,16-decahydro-cyclopenta[a]phenanthren-17-ylidene)-acetonitrile] |  | IC50 (MCF-7 cells; [5]): 3.22 µM |
| CCOC(=O)/C=C1\CCC2C3CCc4cc(O)c(CC)cc4C3CC[C@]12C (some centres unmarked) [Compound 14b, Z- and E-(2-Ethyl-3-hydroxy-13-methyl-6,7,8,9,11,12,13,14,15,16-decahydro-cyclopenta[a]phenanthren-17-ylidene)acetic acid ethyl ester] | 31.1 µM |  |
| CCc1cc2c(cc1O)CCC1C2CC[C@]2(C)/C(=C/CO)CCC12 (some centres unmarked) [Compound 17b, Z- and E-2-Ethyl-17-(2-hydroxy-ethylidene)-13-methyl-7,8,9,11,12,13,14,15,16,17-decahydro-6H-cyclopenta[a]phenanthren-3-ol] | 0.77 µM |  |
| CCc1cc2c(cc1O)CCC1C2CC[C@@]2(C)C1CC[C@@H]2CC#N (stereo in doubt) [Compound 27, (2-Ethyl-3-hydroxy-13-methyl-7,8,9,11,12,13,14,15,16,17-decahydro-6H-cyclopenta[a]phenanthren-17-yl)-acetonitrile] |  | inhibition of taxol-induced polymerisation of tubulin (Tubulin): effectively blocked tubulin assembly |
| COc1cc2c(cc1O)CCC1C2CC[C@@]2(C)C1CC[C@@H]2NCCN(C)C (some centres unmarked) [Compound 36, 17-(2-Dimethylamino-ethylamino)-2-methoxy-13-methyl-7,8,9,11,12,13,14,15,16,17-decahydro-6H-cyclopenta[a]phenanthren-3-ol] | 3.25 µM |  |
| CCc1cc2c(cc1O)CCC1C2CC[C@@]2(C)C1CC[C@@H]2CC#N (some centres unmarked) [Compound 27, (2-Ethyl-3-hydroxy-13-methyl-7,8,9,11,12,13,14,15,16,17-decahydro-6H-cyclopenta[a]phenanthren-17-yl)-acetonitrile] | 3.24 µM |  |
| CCOC(=O)C[C@H]1CCC2C3CCc4cc(OS(N)(=O)=O)c(CC)cc4C3CC[C@@]21C (stereo in doubt) [Compound 23, (2-Ethyl-13-methyl-3-sulfamoyloxy-7,8,9,11,12,13,14,15,16,17-decahydro-6H-cyclopenta[a]phenanthren-17-yl)-acetic acid ethyl ester] | 4.19 µM |  |
| CCOC(=O)C[C@H]1CCC2C3CCc4cc(O)c(CC)cc4C3CC[C@@]21C (stereo in doubt) [Compound 22, (2-Ethyl-3-hydroxy-13-methyl-7,8,9,11,12,13,14,15,16,17-decahydro-6H-cyclopenta[a]phenanthren-17-yl)-acetic acid ethyl ester] | 26.4 µM |  |
| CCc1cc2c(cc1O)CC[C@@H]1[C@@H]2CC[C@]2(C)[C@@H](OS(C)(=O)=O)CC[C@@H]12 [Compound 59, 2-Ethyl-17-O-mesyl estradiol] |  | IC50 (MCF-7 cells; [5]): 5.58 µM |
| CCc1cc2c(cc1OS(N)(=O)=O)CC[C@@H]1[C@@H]2CC[C@]2(C)[C@@H](OS(C)(=O)=O)CC[C@@H]12 [Compound 60, 2-Ethyl-3-O-sulfamoyl-17-O-mesyl estradiol] | 0.09 µM | IC50 [3]: > 10 µM |
| COCCOC1CCC2C3CCc4cc(O)c(OC)cc4C3CCC12C (centres unmarked) [Compound 51, 2-Methoxy-17-(2-methoxy-ethoxy)-13-methyl-7,8,9,11,12,13,14,15,16,17-decahydro-6H-cyclopenta[a]phenanthren-3-ol] | 6.02 µM |  |
| CCc1cc2c(cc1O)CCC1C2CC[C@]2(C)/C(=C\CO)CCC12 (some centres unmarked) [Compound 17a, Z- and E-2-Ethyl-17-(2-hydroxy-ethylidene)-13-methyl-7,8,9,11,12,13,14,15,16,17-decahydro-6H-cyclopenta[a]phenanthren-3-ol] | 0.67 µM |  |
| CCc1cc2c(cc1O)CCC1C2CC[C@@]2(C)C1CC[C@@H]2CCO (some centres unmarked) [Compound 19, 2-Ethyl-17-(2-hydroxy-ethyl)-13-methyl-7,8,9,11,12,13,14,15,16,17-decahydro-6H-cyclopenta[a]phenanthren-3-ol] | 2.52 µM |  |
| CCOC(=O)/C=C1\CCC2C3CCc4cc(OS(N)(=O)=O)c(CC)cc4C3CC[C@]12C (stereo in doubt) [Compound 15, (2-Ethyl-13-methyl-3-sulfamoyloxy-6,7,8,9,11,12,13,14,15,16-decahydro-cyclopenta[a]phenanthren-17-ylidene)-acetic acid ethyl ester] | 1.85 µM |  |
| CCOC(=O)/C=C1/CCC2C3CCc4cc(O)c(CC)cc4C3CC[C@]12C (some centres unmarked) [Compound 14a, Z- and E-(2-Ethyl-3-hydroxy-13-methyl-6,7,8,9,11,12,13,14,15,16-decahydro-cyclopenta[a]phenanthren-17-ylidene)acetic acid ethyl ester] | 30.6 µM |  |
